Source: patent US5922554A, “Inhibition of cellular uptake of cholesterol” (The Regents of the University of California, priority 1996, dated 1999)

System: fibroblast monolayers
Assay: Transfer of intracellular ^3 H-FC to the cell surface (cholesterol oxidase accessibility)
Format: cell-based, human
Description: This assay utilized the finding (see Example 1) that only FC in the caveolar fraction of the plasma membrane fraction was modified by cholesterol oxidase in unfixed fibroblast monolayers.
The rate at which intracellular LDL-derived ^3 H-FC became accessible at the cell surface was measured as follows. Cell monolayers were labeled with ^3 H-FC LDL under the conditions shown for each experiment. Unbound and adsorbed LDL were removed as described above. In some experiments metabolic inhibitors of different transport steps were then added for 30 min at 15° C. […] Cholesterol oxidase (Boehringer-Manheim, Indianapolis, Ind., USA) was added in PBS to a final concentration of 1 U ml^-1. Incubation was for 4 h at 0° C. The cells were washed with ice-cold PBS, and extracted with 0. 1N NAOH. Cell total lipid was extracted with chloroform-methanol (1:1 v/v). […] .
Fibroblast monolayers were prelabeled with FC-labeled LDL for 2 min at 31° C. Medium and surface-bound labeled LDL were removed as described above. The cells were incubated with inhibitors of intracellular transport for 30 min at 15° C. Movement of FC label to the cell surface remained negligible (FIG. 11).
^a Relative to rate in the absence of inhibitor. Values are expressed

## CCN1C(=O)C=CC1=O [N-ethylmaleimide]
  transport of intracellular ^3 H-FC to the cell surface/caveolae: inhibited the return of FC to the cell surface, but less effectively than did nocodazole
NEM 2 mM, KNO3 50 mM, nocodazole, brefeldin A, vinblastine 40 μM, pulse labeled 2 min 31° C., then 30 min 31° C.
  % transfer of intracellular ^3 H-FC to the cell surface, relative to rate in absence of inhibitor: 50 ± 3%
